From patent US4485110A, “β-Lactam compounds, and use” (priority 1980, dated 1984)
Several values for one entry are separate records, joined by “and”; a condition that tells them apart may be missing. Equal entries are not always repeated.

Legend:
Type in all cases: cell-based
S. pneumoniae CN 33 = test: Antibacterial activity, broth MIC; conditions: Streptococcus pneumoniae, CN33, compound alone
Excerpt: (§1) The antibacterial activity of a number of compounds described in the foregoing Examples against a number of organisms is shown in Tables 1 and 10.

S. faecalis I = test: Antibacterial activity, broth MIC; conditions: Enterococcus faecalis; compound alone, broth; read-out: Broth MIC
Excerpt: as §1

P. vulgaris WO 91 = test: Antibacterial activity, broth MIC; conditions: Proteus vulgaris, WO91, compound alone
Excerpt: as §1

S. aureus 1517 = test: Antibacterial activity, broth MIC; conditions: Staphylococcus aureus, compound alone
Excerpt: as §1

S. aureus Oxford = test: Antibacterial activity, broth MIC; conditions: Staphylococcus aureus, compound alone
Excerpt: as §1

E. coli JT 39 R^+ = test: Antibacterial activity, broth MIC; conditions: Escherichia coli; compound alone, broth; read-out: Broth MIC
Excerpt: as §1

S. pyogenes CN 10 = test: Antibacterial activity, broth MIC; conditions: Streptococcus pyogenes, CN10, compound alone
Excerpt: as §1

S. sonnei MB 11967 = test: Antibacterial activity, broth MIC; conditions: Shigella sonnei, MB11967, compound alone
Excerpt: as §1

P. morganii I 580 = test: Antibacterial activity, broth MIC; conditions: Morganella morganii, I580, compound alone
Excerpt: as §1

P. aeruginosa A [1] = test: Antibacterial activity, broth MIC; conditions: Pseudomonas aeruginosa, compound alone
Excerpt: as §1

S. aureus Russell [2] = test: Antibacterial activity, broth MIC; conditions: Staphylococcus aureus, compound alone
Excerpt: as §1

P. rettgeri WM 16 = test: Antibacterial activity, broth MIC; conditions: Providencia rettgeri, WM16, compound alone
Excerpt: as §1

C. freundii E 8 = test: Antibacterial activity, broth MIC; conditions: Citrobacter freundii, E8; compound alone, broth; read-out: Broth MIC
Excerpt: as §1

E. cloacae N 1 = test: Antibacterial activity, broth MIC; conditions: Enterobacter cloacae, N1, compound alone
Excerpt: as §1

S. typhimurium CT 10 = test: Antibacterial activity, broth MIC; conditions: Salmonella enterica, compound alone
Excerpt: as §1

E. coli 0111 [3] = test: Antibacterial activity, broth MIC; conditions: Escherichia coli, compound alone
Excerpt: as §1

S. marcescens US 20 = test: Antibacterial activity, broth MIC; conditions: Serratia marcescens, US20; compound alone, broth; read-out: Broth MIC
Excerpt: as §1

P. mirabilis 977 [4] = test: Antibacterial activity, broth MIC; conditions: Proteus mirabilis, compound alone
Excerpt: as §1

K. aerogenes A = test: Antibacterial activity, broth MIC; conditions: Klebsiella aerogenes; compound alone, broth; read-out: Broth MIC
Excerpt: as §1

[5] = test system: β-lactamase producing organisms; test: β-Lactamase inhibitory activity: synergistic properties; conditions: addition of the compound, Tables 2-5
Excerpt: (§2) These tables show the MIC values of amoxycillin, cephaloridine, ticarcillin and apalcillin against a number of β-lactamase producing organisms.

S. aureus Russell [6] = test: β-Lactamase inhibitory activity: antibiotic MIC alone or in combination
Excerpt: as §2

S. aureus MB9 = test: as above; conditions: compound alone, 5.0 μg/ml
Excerpt: as §2

E. cloacae N1 = test: as above; conditions: Enterobacter cloacae, N1, amoxycillin alone; read-out: Amoxycillin MIC
P. mirabilis 889 = test: as above; conditions: Proteus mirabilis, 889, amoxycillin alone; read-out: Amoxycillin MIC
Excerpt: as §2

C. freundii E8 = test: as above
Excerpt: as §2

P. aeruginosa Dalgleish = test: as above; conditions: Pseudomonas aeruginosa; amoxycillin alone; read-out: Amoxycillin MIC
Excerpt: as §2

P. morganii 1580 = test: as above
Excerpt: as §2

E. coli JT410 C+ = test: as above; conditions: amoxycillin alone
Excerpt: as §2

E. coli JT20R+ = test: as above; conditions: Escherichia coli, read-out: Amoxycillin MIC
Excerpt: as §2

K. aerogenes Ba95R+ = test: as above; conditions: Klebsiella aerogenes, read-out: Amoxycillin MIC
Excerpt: as §2

E. coli JT39R+ = test: as above
Excerpt: as §2

C. freundii B10R+ = test: as above; conditions: Citrobacter freundii, read-out: Amoxycillin MIC
Excerpt: as §2

P. vulgaris WO91 = test: as above
Excerpt: as §2

P. aeruginosa A [7] = test: as above; conditions: Pseudomonas aeruginosa; amoxycillin alone; read-out: Amoxycillin MIC
Excerpt: as §2

E. coli 0111 [8] = test: as above
Excerpt: as §2

K. aerogenes I112 = test: as above
Excerpt: as §2

P. rettgeri WM16 = test: as above
Excerpt: as §2

P. mirabilis 977 [9] = test: as above; conditions: Proteus mirabilis, 977, amoxycillin alone; read-out: Amoxycillin MIC
Excerpt: as §2

E. cloacae T 153 = test: as above; conditions: Enterobacter cloacae, T153; amoxycillin alone

**Q.** For C/C=C1/C(=O)N2C(C(=O)O)=C(SCC)SC12 (racemic) [Compound 27, (5RS)-Sodium(Z)-6-Ethylidene-2-ethylthiopenem-3-carboxylate], which MIC (S. pneumoniae CN 33) is on record?
**A.** Its MIC is 2 µg/mL.

**Q.** What about the MIC (S. faecalis I) of the same compound?
**A.** Its MIC is 250 µg/mL.

**Q.** What about the MIC (P. vulgaris WO 91) of the same compound?
**A.** Its MIC is 31 µg/mL.

**Q.** And the MIC (S. aureus 1517)?
**A.** The MIC was 16 µg/mL.

**Q.** And the MIC (S. aureus Oxford)?
**A.** Its MIC is 2 µg/mL.

**Q.** What about the MIC (E. coli JT 39 R^+) of the same compound?
**A.** Its MIC is 16 µg/mL.

**Q.** What about the MIC (S. pyogenes CN 10) of the same compound?
**A.** The MIC was 4 µg/mL.

**Q.** What about the MIC (S. sonnei MB 11967) of the same compound?
**A.** Its MIC is 31 µg/mL.

**Q.** And the MIC (P. morganii I 580)?
**A.** The MIC was 31 µg/mL.

**Q.** What about the MIC (P. aeruginosa A [1]) of the same compound?
**A.** The MIC was over 500 µg/mL.

**Q.** What about the MIC (S. aureus Russell [2]) of the same compound?
**A.** Its MIC is 4 µg/mL.

**Q.** What about the MIC (P. rettgeri WM 16) of the same compound?
**A.** Its MIC is 62 µg/mL.

**Q.** And the MIC (C. freundii E 8)?
**A.** Its MIC is 31 µg/mL.

**Q.** What about the MIC (E. cloacae N 1) of the same compound?
**A.** The MIC was 31 µg/mL.

**Q.** What about the MIC (S. typhimurium CT 10) of the same compound?
**A.** The MIC was 16 µg/mL.

**Q.** What about the MIC (E. coli 0111 [3]) of the same compound?
**A.** Its MIC is 31 µg/mL.

**Q.** And the MIC (S. marcescens US 20)?
**A.** Its MIC is 62 µg/mL.

**Q.** And the MIC (P. mirabilis 977 [4])?
**A.** The MIC was 31 µg/mL.

**Q.** And the MIC (K. aerogenes A)?
**A.** The MIC was 16 µg/mL.

**Q.** What about the “Effect on MIC of amoxycillin, cephaloridine, ticarcillin and apalcillin” value [5] of the same compound?
**A.** The value was “marked decrease in the MIC”.

**Q.** And the “Inhibition by compound alone (footnote)” value (S. aureus Russell [6]; compound alone, 5.0 μg/ml)?
**A.** The value was “inhibitory”.

**Q.** And the “Inhibition by compound alone (footnote)” value (S. aureus MB9)?
**A.** Its value is “inhibitory”.

**Q.** For CC1(C)S[C@@H]2[C@H](NC(=O)[C@H](N)c3ccc(O)cc3)C(=O)N2[C@H]1C(=O)O [Amoxycillin], which MIC (E. cloacae N1) is on record?
**A.** The MIC was 500 µg/mL.

**Q.** And the MIC (P. mirabilis 889)?
**A.** The MIC was over 1000 µg/mL.

**Q.** What about the MIC (C. freundii E8; Citrobacter freundii, E8, amoxycillin alone, read-out: Amoxycillin MIC) of the same compound?
**A.** Its MIC is 250 µg/mL.

**Q.** What about the “Amoxycillin MIC” value (C. freundii E8; amoxycillin alone) of the same compound?
**A.** The value was 500 µg/mL.

**Q.** What about the MIC (P. aeruginosa Dalgleish) of the same compound?
**A.** The MIC was over 1000 µg/mL.

**Q.** And the MIC (P. morganii 1580; Morganella morganii, 1580, amoxycillin alone, read-out: Amoxycillin MIC)?
**A.** Its MIC is 1000 µg/mL.

**Q.** What about the “Amoxycillin MIC” value (P. morganii 1580; amoxycillin alone) of the same compound?
**A.** Its value is over 1000 µg/mL.

**Q.** And the MIC (E. coli JT410 C+; Escherichia coli, read-out: Amoxycillin MIC)?
**A.** Its MIC is 250 µg/mL.

**Q.** And the “Amoxycillin MIC” value (E. coli JT410 C+)?
**A.** The value was 500 µg/mL.

**Q.** And the MIC (E. coli JT20R+)?
**A.** The MIC was over 1000 µg/mL.

**Q.** What about the MIC (K. aerogenes Ba95R+) of the same compound?
**A.** The MIC was over 1000 µg/mL.

**Q.** And the MIC (E. coli JT39R+; Escherichia coli, read-out: Amoxycillin MIC, amoxycillin alone)?
**A.** The MIC was over 1000 µg/mL.

**Q.** And the “Amoxycillin MIC” value (E. coli JT39R+; amoxycillin alone)?
**A.** Its value is 1000 µg/mL.

**Q.** What about the MIC (C. freundii B10R+) of the same compound?
**A.** The MIC was over 1000 µg/mL.

**Q.** What about the MIC (P. vulgaris WO91; Proteus vulgaris, WO91, amoxycillin alone, read-out: Amoxycillin MIC) of the same compound?
**A.** The MIC was over 1000 µg/mL.

**Q.** What about the “Amoxycillin MIC” value (P. vulgaris WO91; amoxycillin alone) of the same compound?
**A.** Its value is 1000 µg/mL.

**Q.** What about the MIC (P. aeruginosa A [7]) of the same compound?
**A.** The MIC was over 1000 µg/mL.

**Q.** What about the MIC (S. aureus Russell [6]; Staphylococcus aureus, amoxycillin alone, read-out: Amoxycillin MIC) of the same compound?
**A.** Its MIC is 100 µg/mL.

**Q.** What about the MIC (E. coli 0111 [8]; Escherichia coli, 0111, amoxycillin alone, read-out: Amoxycillin MIC) of the same compound?
**A.** The MIC was 10 µg/mL.

**Q.** And the “Amoxycillin MIC” value (E. coli 0111 [8]; amoxycillin alone)?
**A.** The value was 5 µg/mL and 5.0 µg/mL.

**Q.** What about the MIC (K. aerogenes I112; Klebsiella aerogenes, I112, read-out: Amoxycillin MIC, amoxycillin alone) of the same compound?
**A.** Its MIC is 500 µg/mL.

**Q.** And the “Amoxycillin MIC” value (K. aerogenes I112; amoxycillin alone)?
**A.** Its value is 250 µg/mL.

**Q.** What about the MIC (P. rettgeri WM16; Providencia rettgeri, WM16, amoxycillin alone, read-out: Amoxycillin MIC) of the same compound?
**A.** Its MIC is 1000 µg/mL.

**Q.** And the “Amoxycillin MIC” value (P. rettgeri WM16; amoxycillin alone)?
**A.** Its value is 500 µg/mL.

**Q.** And the MIC (P. mirabilis 977 [9])?
**A.** Its MIC is 2.5 µg/mL.

**Q.** And the MIC (E. cloacae T 153)?
**A.** The MIC was 1000 µg/mL.
